# Experimental data taken from PMC5839718 (The Journal of General Physiology, 2018).
# Values joined by “and” are separate entries in the source; they are usually repeats but may differ in a detail not shown here. Identical values can stand only once. “Also recorded” adds a separate entry of the source. Like-named read-outs stand apart in the source and are kept apart here.
# Columns and labels:
# Format in all cases: cell-based
# [1] = target: α4β2 nAChR from β-6-α-9-β-6-α and α4^VFL (1:5) (Homo sapiens, UniProt P17787+P43681, H142V/Q150F/T152L); assay: two-electrode voltage-clamp, oocytes, β-6-α-9-β-6-α and α4^VFL 1:5
# [2] = target: (α4^VFL)3(β2)2 nAChR from α4^VFL and β2 (10:1) (Homo sapiens, UniProt P17787+P43681, H142V/Q150F/T152L); assay: two-electrode voltage-clamp, X. laevis oocytes, α4^VFL and β2 cRNA 10:1
# [3] = target: α4β2 nAChR from β-9a-α and α4 (1:1) (Homo sapiens, UniProt P17787+P43681); assay: two-electrode voltage-clamp, oocytes, β-9a-α and α4
# [4] = target: α4β2 nAChR from β-6a-α and α4^VFL (1:1) (Homo sapiens, UniProt P17787+P43681, H142V/Q150F/T152L); assay: two-electrode voltage-clamp, oocytes, β-6a-α and α4^VFL
# α4β2 nAChR from β-6a-α and α4^VFL (1:1), sequence (P17787 26-502): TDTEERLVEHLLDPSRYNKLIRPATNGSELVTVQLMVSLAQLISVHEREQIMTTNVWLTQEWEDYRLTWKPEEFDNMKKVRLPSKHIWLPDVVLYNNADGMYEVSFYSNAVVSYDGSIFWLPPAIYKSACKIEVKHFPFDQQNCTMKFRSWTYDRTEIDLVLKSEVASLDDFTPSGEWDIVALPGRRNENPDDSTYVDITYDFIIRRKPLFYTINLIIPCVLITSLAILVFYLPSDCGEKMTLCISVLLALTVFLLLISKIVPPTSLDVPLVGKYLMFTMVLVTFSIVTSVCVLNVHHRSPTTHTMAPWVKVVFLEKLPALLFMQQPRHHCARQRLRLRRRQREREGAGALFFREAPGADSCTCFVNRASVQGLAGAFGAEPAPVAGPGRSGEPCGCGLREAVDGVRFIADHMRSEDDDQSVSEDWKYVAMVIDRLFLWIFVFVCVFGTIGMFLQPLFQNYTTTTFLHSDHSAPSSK
# α4β2 nAChR from β-6a-α and α4^VFL (1:1), sequence (P43681 27-627, stated change not applied): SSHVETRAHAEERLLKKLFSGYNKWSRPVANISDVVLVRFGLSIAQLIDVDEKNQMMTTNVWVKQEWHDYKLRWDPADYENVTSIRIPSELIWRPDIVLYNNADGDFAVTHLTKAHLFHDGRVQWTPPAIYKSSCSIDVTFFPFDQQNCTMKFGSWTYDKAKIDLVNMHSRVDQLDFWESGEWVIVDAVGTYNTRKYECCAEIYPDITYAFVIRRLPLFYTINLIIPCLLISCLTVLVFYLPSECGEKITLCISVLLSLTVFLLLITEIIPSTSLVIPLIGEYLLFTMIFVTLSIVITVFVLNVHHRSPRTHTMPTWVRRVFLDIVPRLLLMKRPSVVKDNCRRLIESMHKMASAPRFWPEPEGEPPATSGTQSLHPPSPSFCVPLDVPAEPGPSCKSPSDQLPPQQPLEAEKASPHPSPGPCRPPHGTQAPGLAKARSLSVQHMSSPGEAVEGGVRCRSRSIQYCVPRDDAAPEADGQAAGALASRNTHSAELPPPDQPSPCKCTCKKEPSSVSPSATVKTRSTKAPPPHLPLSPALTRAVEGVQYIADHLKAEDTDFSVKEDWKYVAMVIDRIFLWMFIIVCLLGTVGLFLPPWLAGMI
# α4β2 nAChR from β-6a-α and α4^VFL (1:1), sequence (P43681 27-627 H142V/Q150F/T152L): as the sequence (P43681 27-627, stated change not applied) above, with H116V, Q124F, T126L counted along it
# [5] = target: α4β2 nAChR from β-21a-α^VFL-α-β-α (Homo sapiens, UniProt P17787+P43681, H142V/Q150F/T152L); assay: two-electrode voltage-clamp, oocytes, pentameric β-21a-α^VFL-α-β-α
# [6] = target: α4β2 nAChR from β-21a-α-β-α-α (Homo sapiens, UniProt P17787+P43681); assay: two-electrode voltage-clamp, oocytes, pentameric β-21a-α-β-α-α
# [7] = target: α4β2 nAChR from β-6-α-9-β-6-α alone (Homo sapiens, UniProt P17787+P43681); assay: two-electrode voltage-clamp, oocytes, tetrameric β-6-α-9-β-6-α alone
# α4β2 nAChR from β-6-α-9-β-6-α alone, sequence (P43681 27-627): as the sequence (P43681 27-627, stated change not applied) above
# α4β2 nAChR from β-6-α-9-β-6-α alone, sequence (P17787 26-502): as the sequence (P17787 26-502) above
# [8] = target: α4β2 nAChR from β-21a-α-β-α-α^VFL (Homo sapiens, UniProt P17787+P43681, H142V/Q150F/T152L); assay: two-electrode voltage-clamp, oocytes, pentameric β-21a-α-β-α-α^VFL
# [9] = target: α4β2 nAChR from β-3a-α-β-α-α^VFL (Homo sapiens, UniProt P17787+P43681, H142V/Q150F/T152L); assay: two-electrode voltage-clamp, oocytes, pentameric β-3a-α-β-α-α^VFL
# [10] = target: α4β2 nAChR from β-6-α-9-β-6-α and α4^VFL (1:1) (Homo sapiens, UniProt P17787+P43681, H142V/Q150F/T152L); assay: two-electrode voltage-clamp, oocytes, β-6-α-9-β-6-α and α4^VFL 1:1
# [11] = target: α4β2 nAChR from β-3a-α^VFL-β-α-α (Homo sapiens, UniProt P17787+P43681, H142V/Q150F/T152L); assay: two-electrode voltage-clamp, oocytes, pentameric β-3a-α^VFL-β-α-α
# [12] = target: α4β2 nAChR from β-0a-α and α4^VFL (1:1) (Homo sapiens, UniProt P17787+P43681, H142V/Q150F/T152L); assay: two-electrode voltage-clamp, oocytes, β-0a-α and α4^VFL; conditions: β-0a-α + α4^VFL
# [13] = target: α4β2 nAChR from β-21a-α-α-β-α (Homo sapiens, UniProt P17787+P43681); assay: two-electrode voltage-clamp, oocytes, pentameric β-21a-α-α-β-α
# [14] = target: α4β2 nAChR from β-3a-α-β-α-α (Homo sapiens, UniProt P17787+P43681); assay: two-electrode voltage-clamp, oocytes, pentameric β-3a-α-β-α-α
# [15] = target: α4β2 nAChR from β-6-α and α4^VFL (1:1) (Homo sapiens, UniProt P17787+P43681, H142V/Q150F/T152L); assay: two-electrode voltage-clamp, oocytes, β-6-α and α4^VFL 1:1; conditions: β-6-α + α4^VFL 1:1
# [16] = target: α4β2 nAChR from β-3a-α and α4^VFL (1:1) (Homo sapiens, UniProt P17787+P43681, H142V/Q150F/T152L); assay: two-electrode voltage-clamp, oocytes, β-3a-α and α4^VFL
# α4β2 nAChR from β-3a-α and α4^VFL (1:1), sequence (P17787 26-502): as above
# α4β2 nAChR from β-3a-α and α4^VFL (1:1), sequence (P43681 27-627, stated change not applied): as the sequence (P43681 27-627, stated change not applied) above
# α4β2 nAChR from β-3a-α and α4^VFL (1:1), sequence (P43681 27-627 H142V/Q150F/T152L): as the sequence (P43681 27-627, stated change not applied) above, with H116V, Q124F, T126L counted along it
# [17] = target: α4β2 nAChR from β-6-α and α4 (1:1) (Homo sapiens, UniProt P17787+P43681); assay: two-electrode voltage-clamp, oocytes, β-6-α and α4; conditions: β-6-α + α4
# [18] = target: α4β2 nAChR from concatenated β-6-α alone (Homo sapiens, UniProt P17787+P43681); assay: two-electrode voltage-clamp, oocytes, β-6-α alone
# [19] = target: α4β2 nAChR from β-3a-α^VFL-α-β-α (Homo sapiens, UniProt P17787+P43681, H142V/Q150F/T152L); assay: two-electrode voltage-clamp, oocytes, pentameric β-3a-α^VFL-α-β-α
# [20] = target: α4β2 nAChR from β-21a-α-α^VFL-β-α (Homo sapiens, UniProt P17787+P43681, H142V/Q150F/T152L); assay: two-electrode voltage-clamp, oocytes, pentameric β-21a-α-α^VFL-β-α
# [21] = target: α4β2 nAChR from β-9a-α alone (Homo sapiens, UniProt P17787+P43681); assay: two-electrode voltage-clamp, oocytes, β-9a-α alone
# [22] = […] NS9283 + 10 µM ACh, % change from AChcontrol current
smiles,measurement,setting,value
"CC(=O)OCC[N+](C)(C)C [ACh, acetylcholine]",ACh Frac (first component fraction),"[1]; β-6-α-9-β-6-α + α4^VFL 1:5, biphasic fit",0.32 ± 0.13
same,Emax,[2]; read-out: ACh Emax,104 ± 2%
same,ACh Frac (first component fraction),"[2]; α4^VFL+β2 10:1, biphasic fit",0.71 ± 0.12
same,ACh Frac (first component fraction),"[3]; β-9a-α + α4, biphasic fit",0.13 ± 0.05
same,ACh Frac (first component fraction),"[4]; β-6a-α + α4^VFL, biphasic fit",0.31 ± 0.14
same,Emax,[5]; read-out: ACh Emax,104 ± 1%
same,ACh Frac (first component fraction),"[5]; β-21a-α^VFL-α-β-α, biphasic fit",0.44 ± 0.1
same,Emax,[6]; read-out: ACh Emax,101 ± 1%
same,mean AChmax-evoked currents,[6]; β-21a-α-β-α-α,~2 μA
same,ACh Frac (first component fraction),"[6]; β-21a-α-β-α-α, biphasic fit",0.060 ± 0.011
same,Emax,[7]; read-out: ACh Emax,109 ± 5%
same,ACh Frac (first component fraction),"[7]; β-6-α-9-β-6-α alone, biphasic fit",0.45 and 0.45 ± 0.07
same,Emax,[8]; read-out: ACh Emax,105 ± 1%
same,ACh Frac (first component fraction),"[8]; β-21a-α-β-α-α^VFL, biphasic fit",0.59 ± 0.07
same,Emax,[9]; read-out: ACh Emax,104 ± 1%
same,ACh Frac (first component fraction),"[9]; β-3a-α-β-α-α^VFL, biphasic fit",0.53 ± 0.08
same,ACh Frac (first component fraction),"[10]; β-6-α-9-β-6-α + α4^VFL 1:1, biphasic fit",0.41 ± 0.09
same,Emax,[11]; read-out: ACh Emax,105 ± 1%
same,ACh Frac (first component fraction),"[11]; β-3a-α^VFL-β-α-α, biphasic fit",0.39 ± 0.05
same,ACh Frac (first component fraction),[12]; biphasic fit,0.28 ± 0.34
same,Emax,[13]; read-out: ACh Emax,100 ± 2%
same,ACh Frac (first component fraction),"[13]; β-21a-α-α-β-α, biphasic fit",0.060 ± 0.025
same,Emax,[14]; read-out: ACh Emax,102 ± 1%
same,ACh Frac (first component fraction),"[14]; β-3a-α-β-α-α, biphasic fit",0.11 ± 0.02
same,ACh Frac (first component fraction),[15]; biphasic fit,0.40 ± 0.08
same,ACh Frac (first component fraction),"[16]; β-3a-α + α4^VFL, biphasic fit",0.41 ± 0.06
same,ACh Frac (first component fraction),[17]; biphasic fit,0.073 ± 0.038
same,Emax,[18]; read-out: ACh Emax,102 ± 2%
same,ACh Frac (first component fraction),"[18]; β-6-α alone, biphasic fit",0.11 and 0.11 ± 0.02
same,Emax,[19]; read-out: ACh Emax,105 ± 4%
same,ACh Frac (first component fraction),"[19]; β-3a-α^VFL-α-β-α, biphasic fit",0.28 ± 0.10
same,Emax,[20]; read-out: ACh Emax,102 ± 2%
same,ACh Frac (first component fraction),"[20]; β-21a-α-α^VFL-β-α, biphasic fit",0.46 ± 0.18
same,Emax,[21]; read-out: ACh Emax,105 ± 3%
same,ACh Frac (first component fraction),"[21]; β-9a-α alone, biphasic fit",0.28 and 0.28 ± 0.05
"N#Cc1cccc(-c2nc(-c3cccnc3)no2)c1 [NS9283, 3-(3-(pyridine-3-yl)-1,2,4-oxadiazol-5-yl)benzonitrile]",EC50,"[1]; NS9283 pEC50, β-6-α-9-β-6-α + α4^VFL 1:5, coapplied with 10 µM ACh",7.94 µM
same,NS9283 Emax,"[2]; α4^VFL+β2 10:1, coapplied with 10 µM ACh",no positive efficacy; also recorded: No pos. pot
same,EC50,"[3]; NS9283 pEC50, β-9a-α + α4, coapplied with 10 µM ACh",12.6 µM
same,EC50,"[4]; NS9283 pEC50, β-6a-α + α4^VFL, coapplied with 10 µM ACh",10 µM
same,NS9283 E31.6 µM,"[4]; β-6a-α + α4^VFL, […] NS9283 + 10 µM ACh, % change from AChcontrol current",140 ± 10%
same,EC50,[5],6.31 µM
same,Emax,[5]; read-out: NS9283 Emax,102 ± 10%
same,NS9283 E31.6 µM,"[5]; β-21a-α^VFL-α-β-α, […] NS9283 + 10 µM ACh, % change from AChcontrol current",85 ± 10%
same,EC50,[6],7.94 µM
same,EC50,[7],10 µM
same,Emax,[7]; read-out: NS9283 Emax,220 ± 30%
same,NS9283 E31.6 µM,"[7]; β-6-α-9-β-6-α alone, […] NS9283 + 10 µM ACh, % change from AChcontrol current",170 ± 20%
same,EC50,[8],5.01 µM
same,Emax,[8]; read-out: NS9283 Emax,48 ± 5%
same,NS9283 E31.6 µM,"[8]; β-21a-α-β-α-α^VFL, […] NS9283 + 10 µM ACh, % change from AChcontrol current",41 ± 4%
same,Emax,[9]; read-out: NS9283 Emax,13 ± 1%
same,NS9283 E31.6 µM,"[9]; β-3a-α-β-α-α^VFL, […] NS9283 + 10 µM ACh, % change from AChcontrol current",11 ± 2%
same,EC50,"[10]; NS9283 pEC50, β-6-α-9-β-6-α + α4^VFL 1:1, coapplied with 10 µM ACh",10 µM
same,EC50,"[11]; NS9283 pEC50, β-3a-α^VFL-β-α-α, coapplied with 10 µM ACh",6.31 µM
same,Emax,[11]; read-out: NS9283 Emax,240 ± 20%
same,NS9283 Emax,[12]; coapplied with 10 µM ACh,No hint of NS9283 enhancement; also recorded: No pos. pot
same,EC50,[13],5.01 µM
same,Emax,[13]; read-out: NS9283 Emax,910 ± 70%
same,NS9283 E31.6 µM,"[13]; β-21a-α-α-β-α, […] NS9283 + 10 µM ACh, % change from AChcontrol current",780 ± 90%
same,EC50,[14],7.94 µM
same,Emax,[14]; read-out: NS9283 Emax,800 ± 90%
same,NS9283 E31.6 µM,"[14]; β-3a-α-β-α-α, […] NS9283 + 10 µM ACh, % change from AChcontrol current",640 ± 90%
same,NS9283 E31.6 µM,[15]; [22],210 ± 20%
same,EC50,"[16]; NS9283 pEC50, β-3a-α + α4^VFL, coapplied with 10 µM ACh",6.31 µM
same,NS9283 E31.6 µM,"[16]; β-3a-α + α4^VFL, […] NS9283 + 10 µM ACh, % change from AChcontrol current",22 ± 3%
same,NS9283 E31.6 µM,[17]; [22],860 ± 100%
same,EC50,[18],12.6 µM
same,Emax,[18]; read-out: NS9283 Emax,900 ± 140%
same,NS9283 E31.6 µM,"[18]; β-6-α alone, […] NS9283 + 10 µM ACh, % change from AChcontrol current",640 ± 90%
same,EC50,"[19]; NS9283 pEC50, β-3a-α^VFL-α-β-α, coapplied with 10 µM ACh",7.94 µM
same,Emax,[19]; read-out: NS9283 Emax,340 ± 20%
same,NS9283 E31.6 µM,"[19]; β-3a-α^VFL-α-β-α, […] NS9283 + 10 µM ACh, % change from AChcontrol current",270 ± 10%
same,EC50,"[20]; NS9283 pEC50, β-21a-α-α^VFL-β-α, coapplied with 10 µM ACh",10 µM
same,Emax,[20]; read-out: NS9283 Emax,75 ± 9%
same,NS9283 E31.6 µM,"[20]; β-21a-α-α^VFL-β-α, […] NS9283 + 10 µM ACh, % change from AChcontrol current",55 ± 6%
same,EC50,[21],10 µM
same,Emax,[21]; read-out: NS9283 Emax,130 ± 30%
same,NS9283 E31.6 µM,"[21]; β-9a-α alone, […] NS9283 + 10 µM ACh, % change from AChcontrol current",100 ± 20%
